In patent US5705687A, “Neurotropic drug and method for preparation of same” (priority 1993, dated 1998):
Several values for one entry are separate records, joined by “and”; a condition that tells them apart may be missing. Equal values may be shown once. Where a name gives a salt, the structure may show the parent alone. Read-outs that look alike come from different tables or passages of the source.

What was measured:
[1] = system: mice; test: Soporific action of barbital sodium
[2] = Solubility and hygroscopicity; format: physicochemical
[3] = system: central nervous system; test: Neuropharmacological screening, overall findings; format: in vivo, mice; details: examined dosage range
Procedure: (§1) The myorelaxing effect of the new compounds was tested by the method of the "rotating rod"(Dunham N. W., Miga T. S., A note on a simplex apparatus for detecting neurological deficit in rat and mice, J. Am. Pharm. Ass., 1957, vol. 46, No. 3, pp. 208-209), which allows one to record any abnormalities in coordination and balance, as well as ataxia. The mice in the laboratory tests were placed on a horizontal rod, 2 cm in diameter, rotating at a speed of 5 revolutions per minute. The object was to register the number of mice which were able to maintain equilibrium on the rod for two minutes. Any presence of a myorelaxing component was considered to be a side effect of the substance being studied.

[4] = system: mice; test: Hemic hypoxia (sodium nitrite), lifespan; format: in vivo; details: 400 mg/kg i.p., control
Procedure: (§2) The antihypoxic properties of the new compounds were tested in the models of hypoxic normobaric, hemic and histotoxic hypoxia. The hypoxic (hypercapnic) normobaric hypoxia was induced by placing the mice in hermetically sealed transparent boxes, subdivided into compartments, 80 cm^3 each. The animals were observed until all respiratory movements ceased. The hemic hypoxia was induced by the intraperitoneal administration of sodium nitrite in a dose of 400 mg/kg. The hystotoxic hypoxia was induced by the intraperitoneal administration of sodium nitroprussiate, in a dose of a 20 mg/kg dosage.

[5] = system: mice; test: Soporific action of hexobarbital
[6] = system: mice; test: Histotoxic hypoxia (sodium nitroprussiate), lifespan; format: in vivo; details: 250, 500 and 1000 mg/kg (two values for three doses (so in the source))
Procedure: as §2

[7] = system: mice; test: Orientation reflexes: test of ascent onto an inclined net
[8] = Acute toxicity in mice (Litchfield-Wilcockson); format: in vivo, white crossbred mice; details: mouse, in vivo
[9] = cited from earlier work
[10] = system: mice; test: Rotating rod: myorelaxation and movement coordination; format: in vivo, white crossbred mice
Procedure: as §1

[11] = background statement on the known drug; cited from earlier work
[12] = system: mice; test: Spontaneous motor activity (SMA), 40-channel automatic motor meter; details: for Average SMA, M ± m: control 524.0 ± 99.2; for Relative change in activity (%): control = 100
[13] = system: mice; test: Conditioned reaction of passive avoidance (CPRA), amnesia by electric shock; format: in vivo; details: 250 to 500 mg/kg; earlier tests
Source text: The effect produced by the new substance on the processes of the central nervous system was examined on the model of one-time training of mice, of conditioned reaction of passive avoidance (CPRA), where the amnesic effect was produced by electric shock. During the tests, a two-section chamber was used to condition a certain reflex to the lit and darkened sections. First, for two minutes, the amount of time was registered, that a mouse spent in the lit section before entering the darkened section. Then, while in the darkened section, the animal would receive a single electric shock through the electrode floor (training). The training was immediately followed by an electric shock (50 Hz, 0.2 see). […] The substance was intraperitoneally administered 40 min. prior to the start of the training, the control group received a physiological solution. […] The anti-amnesic properties of the new compound are represented by an increase in the latent period before and after the training. (Δt)

For `CCC1(CC)C(=O)NC(=O)NC1=O` [Barbitol sodium, barbital sodium, reference compound], the “Lateral position (min), barbiturate alone” value ([1]; 250 mg/kg i.p., control of each experiment) was 31.8 ± 1.1 min and 34.5 ± 1.4 min and 38.1 ± 1.3 min.
With `CC(C)(CO)C(=O)C(=O)NCCCC(=O)O` [KPA, N-(4-hydroxy-3,3-dimethyl-2-oxo-1-butyryl)γ-aminobutyric acid] the “solubility in acetone or chloroform” value ([2]; acetone, chloroform) was “not in acetone or chloroform”, the “solubility in water and alcohol” value ([2]; water, alcohol) was “readily soluble” and the “depressing effect on the animals” value [3] was “no depressing effect”.
In the case of `O=N[O-].[Na+]` [Na-nitrite, sodium nitrite, reference compound], the “Average lifespan (sec), hypoxia inducer alone” value [4] is reported as 790.5 ± 21.1 s.
In the case of `CN1C(=O)NC(=O)C(C)(C2=CCCCC2)C1=O` (stereo not shown) [hexobarbital, reference compound], the “Duration of sleep (min), barbiturate alone” value ([5]; 100 mg/kg i.p., control) is reported as 46.3 ± 2.3 min and the “Lateral position (min), barbiturate alone” value ([5]; 100 mg/kg i.p., control) is reported as 2.4 ± 0.15 min.
In the case of `CC(C)(CO)[C@@H](O)C(=O)NCCCC(=O)O` [pantogam, calcium salt of the D-homopantothenic acid, reference compound], the increase in lifespan [6] is reported as 57% and 85%, the ED50 ([7]; Mus musculus, ip, read-out: average effective dose (DE50)) is reported as 680 mg/kg and the “time of maximum strength” value ([7]; after administration, orientation reflex) is reported as 60 min. For the same compound, the “effect on orientation reflex” value ([7]; mice) was “suppressed the orientation reflex”, the LD50 ([8]; intravenous, read-out: DL50 (the source's name)) was 1080 mg/kg and the LD50 ([8]; ip, earlier experiments, identical conditions, read-out: DL50 (acute toxicity)) was 2250 mg/kg. For the same compound, the MTD ([8]; ip, read-out: maximum tolerance level) was 1000 mg/kg, the undesirable side effects ([9]; known drug, high dose) was “depression and myorelaxation” and the “penetration of the hematoencephalitic barrier compared to aminalon” value ([9]; vs aminalon) was “better penetration”. The “increase of soporific effect” value ([5]; 500 mg/kg, hexobarbital, indicated earlier) was 40%, the “loss of movement coordination (side effect)” value ([10]; 300 mg/kg and higher) was “loss of movement coordination” and the “time of maximum strength” value ([10]; after injection, rotating rod) was 30 min. The “return of movement coordination and muscle strength (not until)” value ([10]; after the start of the experiment) was 1.5 h, the therapeutic index [11] was 3.3 and the “increase of soporific effect” value ([1]; 500 mg/kg, barbital sodium, indicated earlier) was 20%. The “decrease in number of runs in the motor meter” value ([12]; 500 mg/kg) was 30%, the “Average SMA, M ± m” value ([12]; 500 mg/kg i.p.) was 392.0 ± 307 and the “Relative change in activity (%)” value ([12]; 500 mg/kg i.p.) was 74.8%. The “Average SMA, M ± m” value ([12]; 1000 mg/kg i.p., P < 0.05) was 176.0 ± 116, the “Relative change in activity (%)” value ([12]; 1000 mg/kg i.p.) was 33.6% and the “decrease in motor activity” value ([12]; 1000 mg/kg, the maximum tolerable dose) was 70%. For the same compound, the “effect on motor activity (in words)” value ([12]; SMA test, mice) was “depressing effect on motor activity”, the “anti-amnesic effect (in words)” value [13] was “moderate a anti-amnesic effect” and the “anti-amnesic effect, share of latent period in animals not exposed to the electric shock” value [13] was 60-75%.
